According to patent US8399491B2, “Derivatives of indole-2-carboxamides and of azaindole-2-carboxamides substituted with a silanyl group, preparation thereof and therapeutic use thereof” (Sanofi, priority 2008, dated 2013):

target: T1, TRPV1 receptor (Rattus norvegicus, UniProt O35433); assay: Inhibition of the current induced by capsaicin on rat DRGs (whole-cell patch-clamp); type: cell-based; details: compound at 1 nM; capsaicin response (1 microM); newborn rat DRG primary culture
T1 construct: The neurones of the DRG naturally express the TRPV1 receptor; endogenous in cells; host or cells: primary culture of newborn rat dorsal root ganglion (DRG) neurones
Experimental: Test for Inhibition of the Current Induced by Capsaicin on Rat DRGs
Primary Culture of Rat Dorsal Route Ganglion (DRG) Cells:
The neurones of the DRG naturally express the TRPV1 receptor.
Newborn rat DRG primary cultures are prepared from 1-day-old rat pups. Briefly, after dissection, the ganglia are trypsinized and the cells are mechanically dissociated by controlled trituration. The cells are resuspended in an Eagle's basal culture medium containing 10% of foetal calf serum, 25 mM KCl, 2 mM glutamine, 100 μg/ml gentamicin and 50 ng/ml of NGF, and then deposited onto laminin-coated glass coverslips (0.2×10^6 cells per coverslip) which are then placed in Corning 12-well dishes. […]
The measuring chambers (volume 800 μl) containing the cell preparation are placed on the platform of an inverted microscope (Olympus IMT2) equipped with Hoffman optics (Modulation Contrast, New York) and observed at the magnification of ×400. […] The overall currents (membrane potential fixed at −60 mV) are recorded with an Axopatch 1D amplifier (Axon Instruments, Foster city, Calif.), connected to a PC controlled by Pclamp8 software (Axon Instruments). The current traces are recorded on paper and simultaneously digitized (sampling frequency 15 to 25 Hz) and acquired on the hard drive of the PC. […] The results are expressed as % inhibition of the control capsaicin response.

T1 sequence (O35433 whole entry): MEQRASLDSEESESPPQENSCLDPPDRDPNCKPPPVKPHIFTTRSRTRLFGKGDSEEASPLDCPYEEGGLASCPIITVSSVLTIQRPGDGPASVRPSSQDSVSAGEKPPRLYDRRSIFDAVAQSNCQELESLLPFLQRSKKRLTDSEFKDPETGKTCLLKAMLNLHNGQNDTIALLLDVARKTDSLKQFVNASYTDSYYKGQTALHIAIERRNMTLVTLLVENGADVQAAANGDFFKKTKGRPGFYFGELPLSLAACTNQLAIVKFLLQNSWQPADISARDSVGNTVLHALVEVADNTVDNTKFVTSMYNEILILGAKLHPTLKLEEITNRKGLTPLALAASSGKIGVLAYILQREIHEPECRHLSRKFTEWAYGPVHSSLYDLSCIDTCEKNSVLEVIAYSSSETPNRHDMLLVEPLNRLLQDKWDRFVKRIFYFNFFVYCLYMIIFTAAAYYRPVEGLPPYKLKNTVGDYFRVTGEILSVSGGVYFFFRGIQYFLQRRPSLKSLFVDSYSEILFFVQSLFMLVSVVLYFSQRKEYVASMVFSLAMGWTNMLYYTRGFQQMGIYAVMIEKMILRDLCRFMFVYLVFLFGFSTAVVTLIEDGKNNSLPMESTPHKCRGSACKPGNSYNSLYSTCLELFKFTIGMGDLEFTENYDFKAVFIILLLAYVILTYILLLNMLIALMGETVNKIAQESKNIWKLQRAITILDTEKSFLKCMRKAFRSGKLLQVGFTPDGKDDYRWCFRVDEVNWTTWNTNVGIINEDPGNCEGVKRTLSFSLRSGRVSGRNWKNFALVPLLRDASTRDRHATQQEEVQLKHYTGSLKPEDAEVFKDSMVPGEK

Row | SMILES | inhibition at 0.001 µM
1 | C[Si](C)(C)c1ccc2cc(C(=O)Nc3ccc(N4CC(O)C4)nc3)n(Cc3cccc(F)c3)c2c1 [Compound 2, N-[6-(3-Hydroxyazetidin-1-yl)pyridin-3-yl]-6-trimethylsilyl-1-[(3-fluorophenyl)methyl]-1H-indole-2-carboxamide] | 84%

same assay, conditions: compound at 10 nM; capsaicin response (1 microM); newborn rat DRG primary culture

Row | SMILES | inhibition at 0.01 µM
2 | C[Si](C)(C)c1ccc2c(c1)cc(C(=O)Nc1ccc(N3CCC3)nc1)n2Cc1cccc(F)c1 [Compound 3, N-[6-(Azetidin-1-yl)pyridin-3-yl]-5-trimethylsilyl-1-[(3-fluorophenyl)methyl]-1H-indole-2-carboxamide] | 95%

tested on: not given; assay: not given; details: not given

Row | SMILES | melting point
3 | C[Si](C)(c1ccc2c(c1)cc(C(=O)Nc1ccc(N3CCC3)nc1)n2Cc1cccc(F)c1)C1CCCCC1 | 202 to 203 °C
4 | CC[Si](CC)(CC)c1ccc2c(c1)cc(C(=O)Nc1ccc(N3CCC3)nc1)n2Cc1cccc(F)c1 | 166 to 168 °C
5 | C[Si](C)(C)c1ccc2c(c1)cc(C(=O)Nc1ccc(N3CCC3)nc1)n2Cc1cccc(F)c1 [Compound 3, N-[6-(Azetidin-1-yl)pyridin-3-yl]-5-trimethylsilyl-1-[(3-fluorophenyl)methyl]-1H-indole-2-carboxamide] | 212 to 213 °C
6 | CC(C)(C)[Si](C)(C)c1ccc2c(c1)cc(C(=O)Nc1ccc(N3CCC3)nc1)n2Cc1cccc(F)c1 | 110 to 112 °C
7 | CC[Si](C)(C)c1ccc2c(c1)cc(C(=O)Nc1ccc(N3CCC3)nc1)n2Cc1cccc(F)c1 | 188 to 189 °C
8 | O=C(Nc1ccc(N2CCC2)nc1)c1cc2cc([SiH2]C(c3ccccc3)c3ccccc3)ccc2n1Cc1cccc(F)c1 | 98 to 100 °C
9 | C[Si](C)(C)c1ccc2c(c1)cc(C(=O)Nc1ccc(N3CC(O)C3)nc1)n2Cc1cccc(F)c1 | 207 to 208 °C
10 | CC[Si](C)(CC)c1ccc2c(c1)cc(C(=O)Nc1ccc(N3CCC3)nc1)n2Cc1cccc(F)c1 | 171 to 173 °C
11 | CC(C)[Si](C)(C)c1ccc2c(c1)cc(C(=O)Nc1ccc(N3CCC3)nc1)n2Cc1cccc(F)c1 | 179 to 180 °C
12 | C[Si](C)(c1ccccc1)c1ccc2c(c1)cc(C(=O)Nc1ccc(N3CCC3)nc1)n2Cc1cccc(F)c1 | 200 to 202 °C
13 | C[Si](C)(c1ccc2c(c1)cc(C(=O)Nc1ccc(N3CCCC3)nc1)n2Cc1cccc(F)c1)C1CCCCC1 | 192 to 194 °C
14 | C[Si](C)(C)c1cccc2cc(C(=O)Nc3ccc(N4CCC4)nc3)n(Cc3cccc(F)c3)c12 | 160 to 162 °C
15 | C[Si](C)(C)c1cccc2cc(C(=O)Nc3ccc(N4CC(O)C4)nc3)n(Cc3cccc(F)c3)c12 | 215 to 217 °C
